Measurements from the NIST ThermoML archive (doi:10.1007/s10765-008-0410-4).

Test: xn = mol fraction of the nth substance listed
Conditions: Liquid, Vibrating tube method

CCCCn1cc[n+](C)c1.F[B-](F)(F)F [1-butyl-3-methylimidazolium tetrafluoroborate] + CCO
Conditions	mass density [kg/m3]
298.15 K, 120 kPa, x1 = 0.9152	1199.7
298.15 K, 180 kPa, x1 = 0.7452	1171.71
298.15 K, 210 kPa, x1 = 0.5384	1124.67
298.15 K, 280 kPa, x1 = 1	1211.19
298.15 K, 340 kPa, x1 = 0.3147	1044.49
298.15 K, 390 kPa, x1 = 0.0701	875.91
298.15 K, 4960 kPa, x1 = 0.7452	1174.16
298.15 K, 5040 kPa, x1 = 0.5384	1127.45
298.15 K, 5140 kPa, x1 = 0.9152	1202.06
298.15 K, 5500 kPa, x1 = 0.0701	880.04
298.15 K, 5630 kPa, x1 = 0.3147	1048.05
298.15 K, 5640 kPa, x1 = 1	1213.63
298.15 K, 10030 kPa, x1 = 0.9152	1204.31
298.15 K, 10060 kPa, x1 = 0.7452	1176.71
298.15 K, 10260 kPa, x1 = 0.5384	1130.36
298.15 K, 10620 kPa, x1 = 1	1215.85
298.15 K, 10910 kPa, x1 = 0.3147	1051.47
298.15 K, 11370 kPa, x1 = 0.0701	884.58
298.15 K, 15130 kPa, x1 = 0.0701	887.37
298.15 K, 15210 kPa, x1 = 0.7452	1179.21
298.15 K, 15280 kPa, x1 = 0.3147	1054.2
298.15 K, 15320 kPa, x1 = 0.5384	1133.1
298.15 K, 15340 kPa, x1 = 1	1217.77
298.15 K, 15620 kPa, x1 = 0.9152	1206.82
298.15 K, 20090 kPa, x1 = 0.5384	1135.59
298.15 K, 20360 kPa, x1 = 0.7452	1181.64
298.15 K, 20480 kPa, x1 = 0.9152	1208.95
298.15 K, 20540 kPa, x1 = 0.3147	1057.36
298.15 K, 20640 kPa, x1 = 1	1220.29
298.15 K, 21070 kPa, x1 = 0.0701	891.6
298.15 K, 25270 kPa, x1 = 1	1222.18
298.15 K, 25410 kPa, x1 = 0.7452	1183.95
298.15 K, 25470 kPa, x1 = 0.3147	1060.21
298.15 K, 25570 kPa, x1 = 0.0701	894.66
298.15 K, 26070 kPa, x1 = 0.5384	1138.61
298.15 K, 26140 kPa, x1 = 0.9152	1211.36
298.15 K, 29870 kPa, x1 = 0.9152	1212.91
298.15 K, 30050 kPa, x1 = 1	1223.93
298.15 K, 30070 kPa, x1 = 0.5384	1140.56
298.15 K, 30090 kPa, x1 = 0.7452	1186.03
298.15 K, 30620 kPa, x1 = 0.0701	897.94
298.15 K, 31120 kPa, x1 = 0.3147	1063.34
298.15 K, 35410 kPa, x1 = 0.5384	1143.07
298.15 K, 35410 kPa, x1 = 1	1226.07
298.15 K, 35480 kPa, x1 = 0.7452	1188.36
298.15 K, 35740 kPa, x1 = 0.9152	1215.3
298.15 K, 35800 kPa, x1 = 0.3147	1065.82
298.15 K, 35860 kPa, x1 = 0.0701	901.17
298.15 K, 39340 kPa, x1 = 0.0701	903.23
298.15 K, 39610 kPa, x1 = 1	1227.81
298.15 K, 39770 kPa, x1 = 0.3147	1067.84
298.15 K, 39920 kPa, x1 = 0.7452	1190.22
298.15 K, 39980 kPa, x1 = 0.5384	1145.14
298.15 K, 39980 kPa, x1 = 0.9152	1216.97
323.15 K, 290 kPa, x1 = 0.0701	856.52
323.15 K, 340 kPa, x1 = 0.3147	1026.83
323.15 K, 420 kPa, x1 = 0.7452	1153.47
323.15 K, 510 kPa, x1 = 0.9152	1181.35
323.15 K, 730 kPa, x1 = 1	1192.89
323.15 K, 850 kPa, x1 = 0.5384	1106.94
323.15 K, 4870 kPa, x1 = 0.9152	1183.6
323.15 K, 4890 kPa, x1 = 0.5384	1109.43
323.15 K, 5010 kPa, x1 = 0.3147	1030.15
323.15 K, 5060 kPa, x1 = 0.7452	1156.05
323.15 K, 5410 kPa, x1 = 0.0701	861.09
323.15 K, 5640 kPa, x1 = 1	1195.3
323.15 K, 9860 kPa, x1 = 0.5384	1112.4
323.15 K, 10080 kPa, x1 = 0.9152	1186.23
323.15 K, 10110 kPa, x1 = 0.3147	1033.63
323.15 K, 10610 kPa, x1 = 1	1197.71
323.15 K, 10730 kPa, x1 = 0.0701	865.61
323.15 K, 10740 kPa, x1 = 0.7452	1159.11
323.15 K, 14870 kPa, x1 = 0.5384	1115.29
323.15 K, 15080 kPa, x1 = 0.7452	1161.39
323.15 K, 15210 kPa, x1 = 0.9152	1188.77
323.15 K, 15410 kPa, x1 = 0.3147	1037.07
323.15 K, 15430 kPa, x1 = 0.0701	869.4
323.15 K, 15440 kPa, x1 = 1	1200.01
323.15 K, 20160 kPa, x1 = 0.5384	1118.22
323.15 K, 20310 kPa, x1 = 0.7452	1164.06
323.15 K, 20330 kPa, x1 = 0.0701	873.16
323.15 K, 20460 kPa, x1 = 1	1202.37
323.15 K, 20470 kPa, x1 = 0.9152	1191.31
323.15 K, 20750 kPa, x1 = 0.3147	1040.38
323.15 K, 25010 kPa, x1 = 0.9152	1193.45
323.15 K, 25120 kPa, x1 = 0.7452	1166.45
323.15 K, 25360 kPa, x1 = 1	1204.64
323.15 K, 25380 kPa, x1 = 0.0701	876.83
323.15 K, 25840 kPa, x1 = 0.5384	1121.23
323.15 K, 26290 kPa, x1 = 0.3147	1043.62
323.15 K, 30070 kPa, x1 = 0.9152	1195.79
323.15 K, 30080 kPa, x1 = 0.7452	1168.84
323.15 K, 30260 kPa, x1 = 0.5384	1123.49
323.15 K, 30330 kPa, x1 = 0.0701	880.21
323.15 K, 30640 kPa, x1 = 0.3147	1046.04
323.15 K, 30740 kPa, x1 = 1	1207.09
323.15 K, 34740 kPa, x1 = 0.0701	883.06
323.15 K, 34960 kPa, x1 = 0.9152	1198
323.15 K, 35070 kPa, x1 = 0.7452	1171.16
323.15 K, 35260 kPa, x1 = 0.3147	1048.48
323.15 K, 35420 kPa, x1 = 0.5384	1126.01
323.15 K, 35650 kPa, x1 = 1	1209.29
323.15 K, 39850 kPa, x1 = 1	1211.14
323.15 K, 40000 kPa, x1 = 0.9152	1200.22
323.15 K, 40010 kPa, x1 = 0.0701	886.25
323.15 K, 40010 kPa, x1 = 0.7452	1173.4
323.15 K, 40020 kPa, x1 = 0.5384	1128.17
323.15 K, 40120 kPa, x1 = 0.3147	1050.91
348.15 K, 210 kPa, x1 = 1	1174.44
348.15 K, 230 kPa, x1 = 0.3147	1007.5
348.15 K, 380 kPa, x1 = 0.7452	1134.96
348.15 K, 450 kPa, x1 = 0.5384	1088.13
348.15 K, 460 kPa, x1 = 0.9152	1163.17
348.15 K, 520 kPa, x1 = 0.0701	835.75
348.15 K, 5010 kPa, x1 = 0.5384	1091.32
348.15 K, 5040 kPa, x1 = 0.9152	1165.81
348.15 K, 5340 kPa, x1 = 0.0701	840.67
348.15 K, 5360 kPa, x1 = 0.7452	1138.08
348.15 K, 5740 kPa, x1 = 0.3147	1011.89
348.15 K, 5960 kPa, x1 = 1	1177.75
348.15 K, 10060 kPa, x1 = 0.5384	1094.71
348.15 K, 10090 kPa, x1 = 0.7452	1140.95
348.15 K, 10480 kPa, x1 = 1	1180.3
348.15 K, 11210 kPa, x1 = 0.9152	1169.27
348.15 K, 11420 kPa, x1 = 0.3147	1016.16
348.15 K, 11710 kPa, x1 = 0.0701	846.75
348.15 K, 15080 kPa, x1 = 0.9152	1171.38
348.15 K, 15210 kPa, x1 = 0.5384	1098.01
348.15 K, 15420 kPa, x1 = 0.7452	1144.07
348.15 K, 15430 kPa, x1 = 1	1182.72
348.15 K, 15740 kPa, x1 = 0.3147	1019.22
348.15 K, 15840 kPa, x1 = 0.0701	850.45
348.15 K, 20060 kPa, x1 = 0.5384	1100.98
348.15 K, 20080 kPa, x1 = 0.7452	1146.71
348.15 K, 20550 kPa, x1 = 0.0701	854.43
